Data published in patent US9085608B2, “Treatment of biofilms” (LYTIX BIOPHARMA AS, priority 2008, dated 2015).
Values after ≈ are worked out from the molar mass of the structure shown. “Also recorded” adds a separate entry of the source. Where two headings read alike, the source gives them in different places.

How the values were obtained:
[1] = system: S. haemolyticus TUH 51-07 biofilm; experiment: Biofilm imaging, LIVE/DEAD staining and confocal laser scanning microscopy; assay type: cell-based, Staphylococcus haemolyticus; details: 24 h treatment
Protocol: One ml aliquots of MHIIB-diluted overnight culture was used to grow S. haemolyticus TUH 51-07 biofilm on plastic coverslides (Thermanox, cellculture treated on one side, NUNC, Roskilde, Denmark) in 24-well dishes (Falcon 3047, Becton Dickinson, NJ, USA) for 24 h. The coverslides were then washed carefully with PBS, moved to a new plate and treated for 24 h with tetracycline 50 mg/L and 500 mg/L, vancomycin 50 mg/L and 500 mg/L, or Compound A 50 mg/L and 500 mg/L. The coverslides were washed again with […] and stained with a LIVE/DEAD kit (Invitrogen Molecular Probes, Eugene, Oreg., USA) following the manufacturer's instructions. This stain contains SYTO 9 (green fluorescent) and propidium iodide (PI; red fluorescent), both binding to DNA. When used alone, the SYTO 9 generally stains all bacteria in a population; both those with intact and those with damaged membranes. In contrast, PI penetrates only bacteria with damaged membranes, causing a reduction in the SYTO 9 stain green fluorescence when both dyes are present. We examined treated and untreated biofilms with a Leica TCS SP5 (Leica Microsystems CMS Gmbh, Mannheim, Germany) confocal laser scanning microscope (CLSM). Images were obtained using a 63×1.2 NA HCX PL APO water immersion lens. For detection of SYTO9 (green channel), we used the 488 nm line of the argon laser and a detection bandwidth of 495-515 nm. For PI detection (red channel), we used the 561 nm line and a detection bandwidth of 615-660 nm. The two fluorescent-signals were collected sequentially at 400 Hz. Image analyses and export was performed in Leica LAS AF version 1.8.2.

[2] = system: 24 h old biofilm of 6 different staphylococcal strains; experiment: Biofilm metabolic activity, Alamar blue reduction; assay type: cell-based, S. epidermidis, S. haemolyticus, S. aureus; details: 50 mg/L, 24 h treatment; all biofilms except S. aureus PIA 9
Protocol: Biofilm formation was induced in 96-well flat bottom microtitre plates (Nunclon Surface, NUNC, Roskilde, Denmark). First, overnight cultures were diluted 1:100 in MHIIB (S. epidermidis and S. haemolyticus) or tryptic soy broth (TSB) with 5% glucose and 5% NaCl (S. aureus). Two hundred of this bacterial suspension (10^7 cfu/ml) was added to each well and incubated for 24 h at 37° C. After 24 h the wells were carefully washed twice with phosphate-buffered saline (PBS) to remove planktonic bacteria. The washing procedure was evaluated by measuring metabolic activity of the PBS with the Alamar blue method, described in detail below.
The washed biofilms were subjected to treatment with antibiotics or SAMPs at different concentrations. Stock solutions of the tetracycline (Sigma Aldrich), vancomycin (Alpharma) and linezolid (Pfizer) were diluted in MHIIB to 5 mg/L, 50 mg/L and 500 mg/L, and rifampicin (Sigma Aldrich) was diluted in MHIIB to 0.01 mg/L, 0.1 mg/L and 1 mg/L. Trifluoroacetate salts of the SAMPs were dissolved in sterile water and diluted to 5 mg/L, 50 mg/L and 500 mg/L in MHIIB. 200 μl of antibiotics or SAMPs, in different concentrations, were added to each well and incubated for 24 h at 37° C. Positive controls were untreated biofilms only added 200 μl MHIIB. Negative controls were only 200 μl MHIIB, with no bacteria added.
We quantified the metabolic activity of biofilm with a slightly modified method previously described by Pettit et al. in Antimicrob. […] Briefly, the wells were washed twice with PBS. We then added 250 μl MHIIB with 5% Alamar blue (AB; Invitrogen, Carlsbad, Calif., USA) to each well. AB is a redox indicator which both fluoresces and changes colour in response to chemical reduction. The extent of reduction is a reflection of bacterial cell viability. After 1 h incubation at 37° C., absorbance was recorded at 570 and 600 nm using Versamax tuneable microplate reader (Molecular Devices, Sunnyvale, Calif., USA). […] The highest and lowest value of each run was excluded from the analyses, and the remaining 18 values were averaged.
The percent reduction of AB was calculated according to the manufacturer's formula (Invitrogen, Carlsbad, USA). We calculated mean and standard deviations (SD) of all repeated measurements.
We defined two levels of antimicrobial suppression of metabolic activity.

[3] = system: Staphylococcus epidermidis TUH 08-16; experiment: microbe, parasite or virus in culture
Protocol: (§1) Bacteria were grown overnight at 37° C. in cation adjusted Mueller-Hinton II Broth (MHIIB).
(§2) We determined the MICs of oxacillin, gentamicin, tetracycline, vancomycin and linezolid using E-test (AB Biodisk, Solna, Sweden) and MICs of rifampicin using broth microdilution assay. Breakpoints were interpreted according to EUCAST criteria. […] All 3 SAMPs are tripeptides with two arginine residues providing their cationic moieties (FIG. 1). The lipophilic bulk is provided by a modified tryptophane derivate. […] The molecular weights of the SAMPs are in the range of 700-800 Dalton.

[4] = system: Staphylococcus aureus PIA90; experiment: microbe, parasite or virus in culture
Protocol: as §1, §2

[5] = system: Staphylococcus epidermidis RP62A ATCC 35984; experiment: microbe, parasite or virus in culture
Protocol: as §1, §2

[6] = system: Staphylococcus haemolyticus TUH 51-03; experiment: microbe, parasite or virus in culture
Protocol: as §1, §2

[7] = system: Staphylococcus haemolyticus TUH 51-07; experiment: microbe, parasite or virus in culture
Protocol: as §1, §2

[8] = system: Staphylococcus aureus PIA 9; experiment: microbe, parasite or virus in culture
Protocol: as §1, §2

[9] = system: six staphylococcal strains (2 S. epidermidis, 2 S. haemolyticus and 2 S. aureus); experiment: Susceptibility testing under planktonic growth condition, EUCAST breakpoints; assay type: cell-based; details: all 6 strains; EUCAST criteria
Protocol: The six staphylococcal strains (2 S. epidermidis, 2 S. haemolyticus and 2 S. aureus) used in this study were selected based on their previously known biofilm forming capacity (Table 1).
as §1
We determined the MICs of oxacillin, gentamicin, tetracycline, vancomycin and linezolid using E-test (AB Biodisk, Solna, Sweden) and MICs of rifampicin using broth microdilution assay. Breakpoints were interpreted according to EUCAST criteria. We selected 3 different SAMPs (Compounds A, B and C; Lytix Biopharma, Tromsø, Norway—see FIG. 1) based on previously known antimicrobial activities, and determined their exact MICs with broth microdilution assay. All 3 SAMPs are tripeptides with two arginine residues providing their cationic moieties (FIG. 1). The lipophilic bulk is provided by a modified tryptophane derivate. The difference between the compounds is the size of the C-terminal modification; Compound A has the smallest and Compound B has the largest C-terminal modification (FIG. 1). The molecular weights of the SAMPs are in the range of 700-800 Dalton.

[10] = Staphylococcus epidermidis, TUH0816
[11] = Staphylococcus epidermidis, ATCC35984
[12] = Staphylococcus haemolyticus, TUH5103
[13] = Staphylococcus haemolyticus, TUH5107

## CC(C)NC(=O)[C@H](CCCNC(=N)N)NC(=O)[C@H](Cc1c(C(C)(C)C)[nH]c2c(C(C)(C)C)cc(C(C)(C)C)cc12)NC(=O)[C@@H](N)CCCNC(=N)N [Compound A]
[1]; 50 mg/L
  LIVE/DEAD staining of biofilm cells (CLSM): almost all cells are stained red
[1]; 500 mg/L
  LIVE/DEAD staining of biofilm cells (CLSM): almost all cells are stained red; also recorded: membrane damage of all cells
[2]
  suppression of metabolic activity (AB reduction): strong or complete suppression
[3]; TUH 08-16
  MIC: 4 µg/mL (≈ 5.51 µM)
[4]; PIA90
  MIC: 8 µg/mL (≈ 11 µM)
[5]; ATCC 35984
  MIC: 8 µg/mL (≈ 11 µM)
[6]
  MIC: 8 µg/mL (≈ 11 µM)
[7]
  MIC: 8 µg/mL (≈ 11 µM)
[8]; PIA 9
  MIC: 8 µg/mL (≈ 11 µM)

## CO[C@H]1/C=C/O[C@@]2(C)Oc3c(C)c(O)c4c(O)c(c(/C=N/N5CCN(C)CC5)c(O)c4c3C2=O)NC(=O)/C(C)=C\C=C\[C@H](C)[C@H](O)[C@@H](C)[C@@H](O)[C@@H](C)[C@H](OC(C)=O)[C@@H]1C [RIF, rifampicin]
[3]; [10]
  MIC: 0.016 µg/mL (≈ 0.0194 µM)
[4]; Staphylococcus aureus, PIA90
  MIC: 0.016 µg/mL (≈ 0.0194 µM)
[5]; [11]
  MIC: < 0.016 µg/mL
[6]; [12]
  MIC: < 0.016 µg/mL
[7]; [13]
  MIC: 0.016 µg/mL (≈ 0.0194 µM)
[8]; Staphylococcus aureus, PIA9
  MIC: < 0.016 µg/mL

## CC(=O)NC[C@H]1CN(c2ccc(N3CCOCC3)c(F)c2)C(=O)O1 [LZD, linezolid]
[9]
  susceptibility under planktonic growth: susceptible; also recorded: sensitive
[3]; [10]
  MIC: 2 µg/mL (≈ 5.93 µM)
[4]; Staphylococcus aureus, PIA90
  MIC: 1 µg/mL (≈ 2.96 µM)
[5]; [11]
  MIC: 1 µg/mL (≈ 2.96 µM)
[6]; [12]
  MIC: 0.5 µg/mL (≈ 1.48 µM)
[7]; [13]
  MIC: 0.5 µg/mL (≈ 1.48 µM)
[8]; Staphylococcus aureus, PIA9
  MIC: 2 µg/mL (≈ 5.93 µM)

## CC(C)(C)c1cc(C(C)(C)C)c2[nH]c(C(C)(C)C)c(C[C@H](NC(=O)[C@@H](N)CCCNC(=N)N)C(=O)N[C@@H](CCCNC(=N)N)C(=O)NCCc3ccccc3)c2c1 [Compound B]
[2]
  suppression of metabolic activity (AB reduction): strong or complete suppression
[3]; planktonic, SE TUH 08-16
  MIC: 2 µg/mL (≈ 2.54 µM)
[4]; planktonic, SA PIA90
  MIC: 2 µg/mL (≈ 2.54 µM)
[5]; planktonic, SE RP62A ATCC 35984
  MIC: 4 µg/mL (≈ 5.08 µM)
[6]; planktonic, SH TUH 51-03
  MIC: 4 µg/mL (≈ 5.08 µM)
[7]; planktonic, SH TUH 51-07
  MIC: 4 µg/mL (≈ 5.08 µM)
[8]; planktonic, SA PIA 9
  MIC: 2 µg/mL (≈ 2.54 µM)
